Results taken from paper PMC11314561, “Design and Synthesis of Novel Aminoindazole-pyrrolo[2,3-b]pyridine Inhibitors of IKKα That Selectively Perturb Cellular Non-Canonical NF-κB Signalling” (Molecules, 2024).
In brackets after ≈: the same amount, converted by molar mass. Where two headings read alike, the source gives them in different places.

Key:
IKKβ = target: T1, IKKβ (Homo sapiens, UniProt O14920); assay: DELFIA kinase assay, IKKβ; assay type: biochemical
T1 sequence (O14920 1-756): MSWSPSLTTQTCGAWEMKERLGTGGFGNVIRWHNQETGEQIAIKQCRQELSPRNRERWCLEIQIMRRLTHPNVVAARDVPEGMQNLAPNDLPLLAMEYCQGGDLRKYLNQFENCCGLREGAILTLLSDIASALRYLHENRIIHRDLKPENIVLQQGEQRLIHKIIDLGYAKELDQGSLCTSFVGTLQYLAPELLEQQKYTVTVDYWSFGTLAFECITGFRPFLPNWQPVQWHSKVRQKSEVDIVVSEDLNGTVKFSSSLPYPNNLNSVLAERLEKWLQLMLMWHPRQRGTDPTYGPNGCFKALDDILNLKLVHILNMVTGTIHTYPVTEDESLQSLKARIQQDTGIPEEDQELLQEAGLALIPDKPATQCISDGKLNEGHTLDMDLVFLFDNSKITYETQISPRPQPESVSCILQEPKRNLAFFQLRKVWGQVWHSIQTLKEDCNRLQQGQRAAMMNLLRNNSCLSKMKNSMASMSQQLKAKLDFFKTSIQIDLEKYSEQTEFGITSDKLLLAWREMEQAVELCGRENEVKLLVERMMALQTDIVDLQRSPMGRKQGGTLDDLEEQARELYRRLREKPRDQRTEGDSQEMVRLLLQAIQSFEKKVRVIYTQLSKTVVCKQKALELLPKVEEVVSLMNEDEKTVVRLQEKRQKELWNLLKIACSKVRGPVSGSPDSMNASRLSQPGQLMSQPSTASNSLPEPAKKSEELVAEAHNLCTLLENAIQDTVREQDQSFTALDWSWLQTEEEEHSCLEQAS
Protocol: (§1) IKKα and IKKβ inhibitory activity were determined using a dissociation-enhanced ligand fluorescent immunoassay (DELFIA) based on the protocol of HTScan™ IKKβ Kinase Assay (Cell Signaling Technology, Danvers, MA, USA) as described in [24].

Turbidimetric solubility = assay type: physicochemical; details: pH 7.4, aqueous buffer, kinetic from dmso stock, 0.01 M phosphate-buffered saline pH7.4
Protocol: Pharmacokinetic studies were contracted to Sygnature Discovery Limited. Turbidimetric Solubility was determined by diluting compound solutions (1 μM, 3 μM, 10 μM, 30 μM, 100 μM) prepared in DMSO into 0.01 M phosphate-buffered saline pH7.4. Turbidimetry was used as the endpoint by measuring absorbance at 620 nm.

IKKα = target: T2, IKKα (Homo sapiens, UniProt O15111); assay: DELFIA kinase assay, IKKα; assay type: biochemical; details: DELFIA kinase assay
T2 sequence (O15111 1-745): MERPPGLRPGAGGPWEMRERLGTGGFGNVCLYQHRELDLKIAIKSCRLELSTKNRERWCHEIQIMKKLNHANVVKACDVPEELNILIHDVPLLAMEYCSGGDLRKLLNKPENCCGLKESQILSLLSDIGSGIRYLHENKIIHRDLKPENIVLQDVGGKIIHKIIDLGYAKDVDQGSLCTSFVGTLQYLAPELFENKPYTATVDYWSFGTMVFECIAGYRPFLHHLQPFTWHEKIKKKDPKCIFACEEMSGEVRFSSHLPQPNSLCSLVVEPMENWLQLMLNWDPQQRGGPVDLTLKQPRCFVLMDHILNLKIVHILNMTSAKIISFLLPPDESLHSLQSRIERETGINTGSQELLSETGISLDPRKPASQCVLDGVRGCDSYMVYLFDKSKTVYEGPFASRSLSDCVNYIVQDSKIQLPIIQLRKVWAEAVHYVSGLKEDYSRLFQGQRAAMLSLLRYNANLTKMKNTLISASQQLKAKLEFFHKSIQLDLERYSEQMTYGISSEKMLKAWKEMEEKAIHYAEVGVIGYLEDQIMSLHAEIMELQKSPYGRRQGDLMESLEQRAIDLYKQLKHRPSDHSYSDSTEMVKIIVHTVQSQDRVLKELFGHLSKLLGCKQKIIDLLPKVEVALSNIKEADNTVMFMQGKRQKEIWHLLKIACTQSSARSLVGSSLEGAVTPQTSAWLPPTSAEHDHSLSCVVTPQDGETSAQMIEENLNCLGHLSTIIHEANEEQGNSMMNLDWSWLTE
Excerpt: To examine the pyrrolo[2,3-b]pyridines as an alternative scaffold, we adopted the AIPP core because it had similar dimensions to SU909 (1), with HBD/HBA motifs positioned at the scaffold extremities to interact with both the hinge region and the G-loop wall of IKKα, a rationale we had previously proposed as the basis for imparting selectivity. A preliminary set of AIPP derivatives was designed and synthesised to explore its utility as an IKK-targeting scaffold, whilst incorporating additional functionality through which to introduce selectivity for the IKKα isoform (2–4; Figure 3). This was achieved by initially adopting two different approaches: either appending a hydrophobic moiety to the pyrrolo[2,3-b]pyridine motif as a fused form to afford the tricyclic derivatives 2 and 3, or as a phenyl substituent to introduce flexibility with respect to the central pyrrolo[2,3-b]pyridine moiety in 4. When assessed against IKKα and IKKβ using our in-house DELFIA kinase assay […] The pyrrolo[2,3-b]pyridine was bound to the hinge region in the classical HBA/HBD motif with the GK+3 amide backbone, whilst the aminoindazole projected towards the top of the pocket to interact with the G-loop (Figure 4A). […] In both isoforms, the 2-phenyl moiety protruded away from the hinge towards the exposed solvent area.
as §1

[1] = Mouse hepatocyte intrinsic clearance and half-life; assay type: in vitro ADME; details: mouse CD1 hepatocytes
Protocol: Intrinsic clearance and half-life were determined using cryopreserved pooled mouse CD1 hepatocytes. Test compounds were analysed at 1 µM in Williams Media E buffer (0.01% DMSO) at a cell density of 0.5 × 10^6 cells mL^–1. Cells were incubated at 37 °C for one hour with shaking, and compound depletion was measured by LC-MS/MS at six time points (0.25, 5, 10, 20, 40, and 60 min).

| SMILES | Ki (IKKβ; read-out: Ki Values IKKβ) | solubility (Turbidimetric solubility) | Ki (IKKα) | half-life at 1 µM ([1]; cryopreserved pooled hepatocytes) | Mouse Hepatocyte Clearance ([1]; 1 µM) | Ki (IKKβ; Ki Values IKKβ) |
| --- | --- | --- | --- | --- | --- | --- |
| Nc1n[nH]c2ccc(-c3ccnc4[nH]c(-c5cc(F)nc(CNc6ccccc6)c5)cc34)cc12 [Compound 6f] | 503 nM | 3.75 µM (≈ 1.69 µg/mL) | 33 nM |  |  |  |
| COCCOCc1cc(OCc2ccccc2)cc(-c2cc3c(-c4ccc5[nH]nc(N)c5c4)ccnc3[nH]2)c1 [Compound 6b] | 1210 nM | 3.75 µM (≈ 1.95 µg/mL) | 29 nM |  |  |  |
| Nc1n[nH]c2ccc(-c3ccnc4[nH]c(-c5cc(OCc6ccccc6)ccn5)cc34)cc12 [Compound 6j] | 2300 nM | 2 µM (≈ 0.865 µg/mL) | 25 nM |  |  |  |
| Nc1n[nH]c2ccc(-c3ccnc4[nH]c(-c5cncc(OCc6ccccc6)c5)cc34)cc12 [Compound 6e] | 1550 nM | 6.5 µM (≈ 2.81 µg/mL) | 21 nM |  |  |  |
| COCCNc1cc(OCc2ccccc2)cc(-c2cc3c(-c4ccc5[nH]nc(N)c5c4)ccnc3[nH]2)c1 [Compound 6c] |  | 2 µM (≈ 1.01 µg/mL) | 26 nM |  |  | 1530 nM |
| Cc1ccc(S(=O)(=O)Nc2ccc(-c3cc4c(-c5ccc6[nH]nc(N)c6c5)ccnc4[nH]3)cc2)cc1 [Compound 5u] | 67 nM |  | 4 nM |  |  |  |
| Nc1n[nH]c2ccc(-c3ccnc4[nH]c(-c5cccc(O)c5)cc34)cc12 [Compound 5d] | 26 nM |  | 5 nM |  |  |  |
| Nc1n[nH]c2ccc(-c3ccnc4[nH]c(-c5cccc(C(=O)O)c5)cc34)cc12 [Compound 5h] | 168 nM |  | 8 nM |  |  |  |
| Nc1n[nH]c2ccc(-c3ccnc4[nH]c(-c5ccc(OCc6ccccc6)nc5)cc34)cc12 [Compound 6d] | 22 nM |  | 12 nM |  |  |  |

The next lines start with results.

| Ki (IKKβ; read-out: Ki Values IKKβ) | solubility (Turbidimetric solubility) | Ki (IKKα) | half-life at 1 µM ([1]; cryopreserved pooled hepatocytes) | Mouse Hepatocyte Clearance ([1]; 1 µM) | SMILES | Ki (IKKβ; Ki Values IKKβ) |
| --- | --- | --- | --- | --- | --- | --- |
| 12 nM | > 100 µM | 6 nM | 2.02 h | 11 μL/min/10^6 Cells | Nc1n[nH]c2ccc(-c3ccnc4[nH]c(-c5ccnc(OCc6ccncc6)c5)cc34)cc12 [Compound 6k] |  |
| 191 nM |  | 10 nM |  |  | Nc1n[nH]c2ccc(-c3ccnc4[nH]c(-c5cccc(CNC6CCCC6)c5)cc34)cc12 [Compound 5n] |  |
| 1180 nM | 2 µM (≈ 0.897 µg/mL) | 5 nM |  |  | Nc1n[nH]c2ccc(-c3ccnc4[nH]c(-c5ccnc(SCc6ccccc6)c5)cc34)cc12 [Compound 6h] |  |
| 1600 nM |  | 42 nM |  |  | Nc1n[nH]c2ccc(-c3ccnc4[nH]c(-c5ccnc(OCCc6ccccc6)c5)cc34)cc12 [Compound 6l] |  |
